Measurements published in patent US9833497B2, “Human originated EGF domain proteins and use of the same” (CHENGDU SOURCEBIO LIMITED-LIABILITY COMPANY, priority 2013, dated 2017).

What was measured:
Assay type in all cases: cell-based
Klebsiella pneumonia = assay: MIC against Gram-negative bacteria: Klebsiella pneumonia; conditions: 5×10^5 CFU/mL; for MIC K. pneumonia: two-fold serial dilution
Method in brief: (§1)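 MIC, the lowest recombinant protein concentration giving no bacterial growth, found by two-fold serial dilution of human EGF-domain proteins in triplicate. Inoculum 5×10^5 CFU/mL in LB from cultures at McFarland 0.5; plates incubated at 37° C, 175 rpm shaking.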

Pseudomonas aeruginosa = assay: MIC against Gram-negative bacteria: Pseudomonas aeruginosa; conditions: 5×10^5 CFU/mL; for MIC P. aeruginosa: two-fold serial dilution
Method in brief: as §1

Serratia marcescens = assay: MIC against Gram-negative bacteria: Serratia marcescens; conditions: 5×10^5 CFU/mL; for MIC S. marcescens: two-fold serial dilution
Method in brief: as §1

Proteus vulgaris = assay: MIC against Gram-negative bacteria: Proteus vulgaris; conditions: 5×10^5 CFU/mL; for MIC P. vulgaris: two-fold serial dilution
Method in brief: as §1

E. coli DH5α = assay: Antibacterial activity: MIC and growth curve against E. coli DH5α in 96-well plate; conditions: minimal inhibitory concentration against E. coli DH5α; 96-well plate, 5×10^5 CFU/mL, 37° C., judged after 8 h
Method in brief: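 MIC taken as lowest protein level with no bacterial growth, tracked by A600 every 30 min during 37 °C, 175 rpm culture. Two-fold protein series 50-12.5 μg/mL final, triplicate wells, against 5×10^5 CFU/mL of LB-washed mid-log cells.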

E. coli BL21 = assay: MIC against Gram-negative bacteria: E. coli BL21; conditions: 5×10^5 CFU/mL; for MIC E. coli BL21: two-fold serial dilution
Method in brief: as §1

Citrobacter diversus = assay: MIC against Gram-negative bacteria: Citrobacter diversus; conditions: 5×10^5 CFU/mL; for MIC C. diversus: two-fold serial dilution
Method in brief: as §1

Moraxella catarrhalis = assay: MIC against Gram-negative bacteria: Moraxella catarrhalis; conditions: 5×10^5 CFU/mL; for MIC M. catarrhalis: two-fold serial dilution
Method in brief: as §1

Proteus mirabilis = assay: MIC against Gram-negative bacteria: Proteus mirabilis; conditions: 5×10^5 CFU/mL; for MIC P. mirabilis: two-fold serial dilution
Method in brief: as §1

Enterobacter cloacae = assay: MIC against Gram-negative bacteria: Enterobacter cloacae; conditions: 5×10^5 CFU/mL; for MIC E. cloacae: two-fold serial dilution
Method in brief: as §1

Aeromonas hydrophila = assay: MIC against Gram-negative bacteria: Aeromonas hydrophila; conditions: 5×10^5 CFU/mL; for MIC A. hydrophila: two-fold serial dilution
Method in brief: as §1

[1] = Klebsiella pneumonia, 96-well plate, 37° C., 10 h
[2] = Pseudomonas aeruginosa, 96-well plate, 37° C., 10 h
[3] = Serratia marcescens, 96-well plate, 37° C., 10 h
[4] = Proteus vulgaris, 96-well plate, 37° C., 10 h
[5] = E. coli BL21, 96-well plate, 37° C., 10 h
[6] = Citrobacter diversus, 96-well plate, 37° C., 10 h
[7] = Moraxella catarrhalis, 96-well plate, 37° C., 10 h
[8] = Proteus mirabilis, 96-well plate, 37° C., 10 h
[9] = Enterobacter cloacae, 96-well plate, 37° C., 10 h
[10] = Aeromonas hydrophila, 96-well plate, 37° C., 10 h

Substance | MIC against K. pneumonia (Klebsiella pneumonia; [1]) [µg/mL] | MIC against P. aeruginosa (Pseudomonas aeruginosa; [2]) [µg/mL] | MIC against S. marcescens (Serratia marcescens; [3]) [µg/mL] | MIC against P. vulgaris (Proteus vulgaris; [4]) [µg/mL] | MIC (E. coli DH5α) [µg/mL] | MIC against E. coli BL21 (E. coli BL21; [5]) [µg/mL] | MIC against C. diversus (Citrobacter diversus; [6]) [µg/mL] | MIC against M. catarrhalis (Moraxella catarrhalis; [7]) [µg/mL] | MIC against P. mirabilis (Proteus mirabilis; [8]) [µg/mL] | MIC against E. cloacae (Enterobacter cloacae; [9]) [µg/mL] | MIC against A. hydrophila (Aeromonas hydrophila; [10]) [µg/mL] | MIC K. pneumonia (Klebsiella pneumonia; 10 h cultivation at 37° C.) [µg/mL] | MIC P. aeruginosa (Pseudomonas aeruginosa; 10 h cultivation at 37° C.) [µg/mL] | MIC S. marcescens (Serratia marcescens; 10 h cultivation at 37° C.) [µg/mL] | MIC P. vulgaris (Proteus vulgaris; 10 h cultivation at 37° C.) [µg/mL] | MIC E. coli BL21 (E. coli BL21; 10 h cultivation at 37° C.) [µg/mL] | MIC C. diversus (Citrobacter diversus; 10 h cultivation at 37° C.) [µg/mL] | MIC M. catarrhalis (Moraxella catarrhalis; 10 h cultivation at 37° C.) [µg/mL] | MIC P. mirabilis (Proteus mirabilis; 10 h cultivation at 37° C.) [µg/mL] | MIC E. cloacae (Enterobacter cloacae; 10 h cultivation at 37° C.) [µg/mL] | also measured
PRT1338 (EMDPCTGLTPGGCSRNAECIKTGTGTHTCVCQQGWTGNGRDCS; listed as Homo sapiens) | 25 | 12.5 | 25 | 12.5 | 50 | 25 | 12.5 | 12.5 | 12.5 | 50 | 12.5 | – | – | – | – | – | – | – | – | – | –
PRT1166 (DTPEGVRYISSNVCGPHGKCKSQSGGKFTCDCNKGFTGTYCH; listed as Homo sapiens) | – | – | – | – | 50 | – | – | – | – | – | – | 50 | 25 | 12.5 | 50 | 12.5 | 12.5 | 50 | 12.5 | 25 | MIC A. hydrophila (Aeromonas hydrophila; 10 h cultivation at 37° C.): 25 µg/mL
PRT1306 (CSLLCLPKANNSRSCRCPEDVSSSVLPSGDLMCDCPQGYQLKNNTCV; listed as Homo sapiens) | 50 | 12.5 | 50 | 25 | 25 | 50 | 50 | 25 | 12.5 | 12.5 | 25 | – | – | – | – | – | – | – | – | – | –
PRT1394 (VRDGCPGLCFGNGRCTLDQNGWHCVCQVGWSGTGCN; listed as Homo sapiens) | – | – | – | – | 50 | – | – | – | – | – | – | – | – | – | – | – | – | – | – | – | MIC against K. pneumonia (Klebsiella pneumonia; Klebsiella pneumonia, 10 h cultivation at 37° C.): 50 µg/mL; MIC against P. aeruginosa (Pseudomonas aeruginosa; Pseudomonas aeruginosa, 10 h cultivation at 37° C.): 12.5 µg/mL; MIC against S. marcescens (Serratia marcescens; Serratia marcescens, 10 h cultivation at 37° C.): 50 µg/mL; MIC against P. vulgaris (Proteus vulgaris; Proteus vulgaris, 10 h cultivation at 37° C.): 25 µg/mL; MIC against E. coli BL21 (E. coli BL21; E. coli BL21, 10 h cultivation at 37° C.): 12.5 µg/mL; MIC against C. diversus (Citrobacter diversus; Citrobacter diversus, 10 h cultivation at 37° C.): 50 µg/mL; MIC against M. catarrhalis (Moraxella catarrhalis; Moraxella catarrhalis, 10 h cultivation at 37° C.): 25 µg/mL; MIC against P. mirabilis (Proteus mirabilis; Proteus mirabilis, 10 h cultivation at 37° C.): 12.5 µg/mL; MIC against E. cloacae (Enterobacter cloacae; Enterobacter cloacae, 10 h cultivation at 37° C.): 12.5 µg/mL; MIC against A. hydrophila (Aeromonas hydrophila; Aeromonas hydrophila, 10 h cultivation at 37° C.): 25 µg/mL
PRT1044 (FGQDCAETCDCAPDARCFPANGACLCEHGFTGDRCT; listed as Homo sapiens) | – | – | – | – | 100 | – | – | – | – | – | – | 12.5 | 50 | 50 | 25 | 50 | 50 | 25 | 12.5 | 50 | MIC A. hydrophila (Aeromonas hydrophila; 10 h cultivation at 37° C.): 50 µg/mL
PRT482 (ECIDDETEEICGGHGKCYCGNCYCKAGWHGDKCE; listed as Homo sapiens) | – | – | – | – | 50 | – | – | – | – | – | – | – | – | – | – | – | – | – | – | – | MIC against K. pneumonia (Klebsiella pneumonia; 96-well plate, 37° C., 10 h): 12.5 µg/mL; MIC against P. aeruginosa (Pseudomonas aeruginosa; 96-well plate, 37° C., 10 h): 50 µg/mL; MIC against S. marcescens (Serratia marcescens; 96-well plate, 37° C., 10 h): 25 µg/mL; MIC against P. vulgaris (Proteus vulgaris; 96-well plate, 37° C., 10 h): 50 µg/mL; MIC against E. coli BL21 (E. coli BL21; 96-well plate, 37° C., 10 h): 12.5 µg/mL; MIC against C. diversus (Citrobacter diversus; 96-well plate, 37° C., 10 h): 25 µg/mL; MIC against M. catarrhalis (Moraxella catarrhalis; 96-well plate, 37° C., 10 h): 12.5 µg/mL; MIC against P. mirabilis (Proteus mirabilis; 96-well plate, 37° C., 10 h): 25 µg/mL; MIC against E. cloacae (Enterobacter cloacae; 96-well plate, 37° C., 10 h): 25 µg/mL; MIC against A. hydrophila (Aeromonas hydrophila; 96-well plate, 37° C., 10 h): 50 µg/mL
